Structures can show the parent of a compound that is named as a salt.
Tests used:
[1] = test system: proIL-1β, TNFα, iNOS, IL-6, MCP-1 and IL-12; assay: Inflammation marker expression in palmitate-stimulated L1 adipocytes (RT-qPCR); assay type: cell-based; conditions: 10 mM, palmitate 500 μM, 24 h
Method: Palmitate is a saturated fatty acid that simulates an experimental obese state. It can be used as a pro-inflammatory stimulant for cytokines such as proIL-1β, TNFα, iNOS, IL-6, MCP-1 and IL-12.
Next, the relative expression of inflammation markers was analyzed by RT and qPCR using HPRT-1 as a normalizer and the untreated cell expression levels as a reference (for MCP-1 and IL-12) or those treated palmitate. After the treatments, culture media were collected and subsequently analyzed, cells were washed with PBS, and RNA was extracted (illustra RNAspin Mini, GE Healthcare) and reverse transcribed (High Capacity cDNA Reverse Transcription Kit, Life Technologies). The expression of the genes that were the object of the study was analyzed by qPCR using specific probes (TaqMan® Gene Expression Assays, Life Technologies). The relative expression (RQ), represented in the figure, was calculated by the ΔΔCt method.

C2C12 myotubes = assay: Glucose concentration of C2C12 myotube cultures in M1 macrophage conditioned media; assay type: cell-based, mouse; conditions: macrophages treated with 10 mM for 2 h, then LPS/IFNγ 16 h
Method: There is considerable evidence showing that inflammation and hyperglycemia are interconnected: inflammation induces hyperglycemia and reciprocally hyperglycemia induces inflammation with the molecular bases not elucidated yet. To explore the participation of GPBP, glucose intake under normoglycemic conditions with conditioned media generated by macrophages differentiated to a proinflammatory M1 phenotype was monitored.
[…]. The glucose concentration of the myotube cultures was determined at different times with Glucocard (Arkray). The controls used were the C2C12 cultured with media conditioned with no stimulated macrophages (Cells) or with M1 conditioned media (M1). The initial glucose levels (time 0) were used as a reference (100%) in each series.

C57BL/6 mice = assay: Glycemia and dietary intake in C57BL/6 mice; assay type: in vivo, mouse; conditions: 1 week
From the text: The mean glycemic values at the beginning and end of the experiment are represented for each group (n=3) with their standard deviations.

IRS2−/− (KO) mice = assay: Fasting glycemia and insulinemia in female IRS2−/− mice; assay type: in vivo, mouse; conditions: 4 weeks
From the text: Insulin resistance characterizes type 2 diabetes, obesity, and the metabolic syndrome. Thus, insulin sensitivity is a major therapeutic objective for these metabolic diseases. Insulin receptor substrate (IRS) proteins regulate the physiological actions of insulin upon binding to the receptor. Specific deletion of IRS2 in mice produces diabetes due to a developmental reduction of the pancreatic β-cell mass and the inability of existing β-cells to expand in response to peripheral insulin resistance. Additionally, IRS2-deficiency in mice causes hepatic insulin resistance concurrent with failed suppression of hepatic glucose production. While male IRS2−/− mice often die of diabetic complications by 12 weeks of age, females IRS2−/− mice develop a milder form of diabetes and many live up to 6 months. The observation that female IRS2−/− mice eat more than controls led to the discovery that this molecule is critical for hypothalamic regulation of food intake.
The mean glycemic values are represented per group (n=3) pre-treatment (black bars) and post-treatment (gray bars) along with their standard deviations. […] The fasting serum insulin levels taken pre-treatment (black bars) and post-treatment (gray bars) were determined using a kit (Millipore), following the manufacturer's instructions. Mean values and standard deviations are presented for each group (n=3) (FIG. 12D).
Due to peripheral resistance to insulin, the IRS2−/− mice also develop hyperinsulinemia.

AS160 = assay: In vitro AS160 phosphorylation in the presence of GPBP, AMPK and AKT; assay type: biochemical; conditions: 5 mM, with FLAG-GPBP, AKT, AMPK
Method: The reactions (25 μL) were carried out at 30° C., and stirred (350 rpm) for 15 min. Then, they were stopped with a reducing loading buffer, heated (95° C., 2 min), and analyzed using electrophoresis, electrotransfer, and autoradiography.

VAPA and VAMPs = assay: Colocalization of VAPA and VAMPs (FIG. 18)
GLUT4 = GLUT4 translocation (FIG. 19A)
[2] = test system: IRS2 knockout mice (KO IRS2); assay: Body weight in IRS2 knockout mice; assay type: in vivo, mouse; conditions: 100 mg/kg/day, 8 weeks
Method: Body weight of the mice was measured prior to the onset of treatment, at 4 weeks after treatment, and at 8 weeks after treatment. There were 8 mice in each group at the pre-treatment and 4-week treatment time points. […] Statistical differences between the experimental groups shown in FIG. 20 were assessed by Student's T test. P value of <0.05 is indicated by *.

[3] = test system: IRS2 knockout mice (KO IRS2); assay: Serum triglycerides in IRS2 knockout mice; assay type: in vivo, mouse; conditions: 100 mg/kg/day, 8 weeks, fasting
Method: At the 8-week treatment time point, there were 8 mice in each of the WT groups, 6 mice in the KO IRS2 untreated control group, 7 mice in the KO IRS2 SLN1 treated group, and 8 mice in the KO SLN2 treated group. Blood was collected at the time of sacrifice and used to measure TG under fasting conditions. […] Statistical differences between the experimental groups shown in FIG. 21 were assessed by Student's T test. P value of <0.05 is indicated by *.

GPBP = target: T1, GPBP (Homo sapiens, UniProt Q9Y5P4); conditions: 1 mM, 24 h
T1 sequence (Q9Y5P4 1-624): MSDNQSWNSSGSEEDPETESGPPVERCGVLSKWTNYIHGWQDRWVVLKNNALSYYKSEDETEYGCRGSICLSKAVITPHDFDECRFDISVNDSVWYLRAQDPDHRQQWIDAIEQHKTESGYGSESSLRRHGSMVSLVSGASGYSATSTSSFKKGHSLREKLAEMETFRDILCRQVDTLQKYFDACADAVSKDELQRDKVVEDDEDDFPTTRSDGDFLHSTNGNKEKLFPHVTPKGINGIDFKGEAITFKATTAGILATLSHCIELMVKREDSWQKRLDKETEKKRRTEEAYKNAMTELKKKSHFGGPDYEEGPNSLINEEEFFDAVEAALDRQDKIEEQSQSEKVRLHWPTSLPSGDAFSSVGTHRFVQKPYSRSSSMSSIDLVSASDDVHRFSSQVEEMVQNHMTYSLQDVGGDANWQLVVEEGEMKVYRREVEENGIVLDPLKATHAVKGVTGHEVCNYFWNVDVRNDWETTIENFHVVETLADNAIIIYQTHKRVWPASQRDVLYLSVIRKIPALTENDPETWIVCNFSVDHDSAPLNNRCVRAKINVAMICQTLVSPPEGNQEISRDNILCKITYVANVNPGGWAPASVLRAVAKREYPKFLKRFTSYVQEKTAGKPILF

[4] = Stage B, ANOVA of repeated measures
clinical [5] = conditions: both, human, in vivo, oral
clinical [6] = conditions: both, human, in vivo

Row | Structure (SMILES) | inflammatory response of palmitate-stimulated adipocytes [1] | glucose levels of myotube cultures (hyperglycemic levels) (C2C12 myotubes) | glycemia, end vs beginning (C57BL/6 mice; 100 mg/kg/day mixed with solid food, n=3) | food intake compared to untreated mice (C57BL/6 mice; 100 mg/kg/day) | fasting glycemia post-treatment (IRS2−/− (KO) mice; 100 mg/kg/day with food, 10-12 weeks old) | fasting insulin levels (IRS2−/− (KO) mice; 100 mg/kg/day) | phosphorylation of AS160 (AS160) | colocalization of VAPA and VAMPS (VAPA and VAMPs) | colocalization of VAPA and VAMPS, comparison SLN1 vs SLN2 (VAPA and VAMPs) | GLUT4 translocation (GLUT4) | average body weight, post- vs pre-treatment [2] | serum triglycerides compared to untreated KO IRS2 [3] | high molecular weight GPBP aggregates (GPBP) | Ln AUCt, Ln AUC12 and Ln AUC0, differences attributed to formula, period and sequence factors [4] | Ln Cmax, differences attributed to formula, period and sequence factors [4] | Ln Cmin, differences attributed to formula, period and sequence factors [4] | AUC (clinical [5]) [µg·h/mL] | AUC (clinical [5]; 1240 mg) [µg·h/mL] | AUC (clinical [6]) [µg·h/mL]
1 | CN(C)C(=N)N=C(N)N [Metformin hydrochloride, metformin hydrochloride, reference compound] | attenuated the inflammatory response | slowed down the progression towards hyperglycemia | significantly reduced glycemia | food intake was greater | slightly lower, though not statistically significant | higher than at the initiation of the experiment | inhibited AS160 phosphorylation | reduced colocalization | greater reduction effect | failed to do so | not significantly different | lower | not present |  |  |  |  |  | 
2 | CN(C)C(=N)N=C(N)N [Metformin, metformin] |  |  |  |  |  |  |  |  |  |  |  |  |  | did not show statistically significant differences | did not show statistically significant differences | did not show statistically significant differences | 119 to 134 | 76.1 to 92.5 | 92.4 to 109

From patent US11185516B2 (Laboratorios Silanes S.A. DE C.V., priority 2016, dated 2021)
